# Laboratory results reported in US20230129359A1, “MUSCARINIC RECEPTOR 4 ANTAGONISTS AND METHODS OF USE” (Neurocrine Biosciences, Inc., priority 2020, published 2023).
# Molecular target: T1, human M4 receptor (Homo sapiens, UniProt P08173)
# T1 construct: expressed in transfected cells; host or cells: CHO cells
# T1 sequence (P08173 1-479): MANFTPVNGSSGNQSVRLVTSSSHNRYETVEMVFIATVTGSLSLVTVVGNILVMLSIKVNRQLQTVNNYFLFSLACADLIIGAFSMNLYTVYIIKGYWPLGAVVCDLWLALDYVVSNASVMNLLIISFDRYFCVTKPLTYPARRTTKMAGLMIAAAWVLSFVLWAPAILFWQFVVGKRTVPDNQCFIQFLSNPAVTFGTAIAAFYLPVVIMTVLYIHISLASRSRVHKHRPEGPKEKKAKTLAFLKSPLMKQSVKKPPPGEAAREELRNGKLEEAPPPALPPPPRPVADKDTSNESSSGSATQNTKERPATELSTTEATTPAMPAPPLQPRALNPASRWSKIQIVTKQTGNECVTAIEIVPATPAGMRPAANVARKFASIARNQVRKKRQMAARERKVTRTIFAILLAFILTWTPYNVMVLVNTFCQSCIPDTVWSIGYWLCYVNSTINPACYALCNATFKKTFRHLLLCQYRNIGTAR
# Experiment: Radioligand ([3H]N-methylscopolamine) binding assay, membranes from CHO cells expressing human M4 receptor
# Conditions: Ki against human M4 receptor; membranes from CHO cells; tritiated N-methylscopolamine 1.5 nM; read-out: K
# Method in brief: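 Competition binding used CHO-cell membranes expressing human M4 with 1.5 nM [3H]N-methylscopolamine and twelve compound concentrations ([…]). Incubation was 90 minutes at 37 °C in 50 mM HEPES, 100 mM NaCl, 5 mM MgCl2, 1 mM EDTA, pH 7.4. Bound ligand was collected by filtration onto PEI-treated glass fibre for Ki.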
row,Ki,Structure (SMILES)
1,10 to 100 nM,"C[C@@H]1CN(c2cnc(C(F)(F)F)cn2)C[C@@H](C)N1C(=O)OC1(C)CC2(CN(Cc3ccccc3)C2)C1 [Compound 356, 2-benzyl-6-methyl-2-azaspiro[3.3]heptan-6-yl (2R,6R)-2,6-dimethyl-4-[5-(trifluoromethyl)pyrazin-2-yl]piperazine-1-carboxylate]"
2,< 10 nM,"C[C@@H]1CN(c2ncc(C(F)(F)F)cn2)[C@@H](C)CN1C(=O)OC1(C)CC2(CN(Cc3ccccc3)C2)C1 [Compound 358, 2-benzyl-6-methyl-2-azaspiro[3.3]heptan-6-yl (2R,5S)-2,5-dimethyl-4-[5-(trifluoromethyl)pyrimidin-2-yl]piperazine-1-carboxylate]"
3,10 to 100 nM,"[2H]c1c([2H])c([2H])c(C([2H])([2H])N2CC3(CC(OC(=O)N4C[C@H](C)N(c5cnc(C(F)(F)F)cn5)C[C@H]4C)C3)C2)c([2H])c1[2H] [Compound 361, 2-[(^2H5)phenyl(^2H2)methyl]-2-azaspiro[3.3]heptan-6-yl (2R,5S)-2,5-dimethyl-4-[5-(trifluoromethyl)pyrazin-2-yl]piperazine-1-carboxylate]"
4,10 to 100 nM,"C[C@@H]1CN(c2cnc3cc(F)ccc3n2)[C@@H](C)CN1C(=O)OC1CC2(C1)CN(Cc1ccccc1)C2 [Compound 363, 2-benzyl-2-azaspiro[3.3]heptan-6-yl (2R,5S)-4-(6-fluoroquinoxalin-2-yl)-2,5-dimethylpiperazine-1-carboxylate]"
5,< 10 nM,"C[C@@H]1CN(c2nc3ccc(C(F)(F)F)cc3s2)C[C@H](C)N1C(=O)OC1CC2(C1)CN(Cc1ccccc1)C2 [Compound 364, 2-benzyl-2-azaspiro[3.3]heptan-6-yl (2R,6S)-2,6-dimethyl-4-[6-(trifluoromethyl)-1,3-benzothiazol-2-yl]piperazine-1-carboxylate]"
6,< 10 nM,"C[C@@H]1CN(c2nc3cc(C(F)(F)F)cnc3s2)C[C@H](C)N1C(=O)OC1CC2(C1)CN(Cc1ccccc1)C2 [Compound 365, 2-benzyl-2-azaspiro[3.3]heptan-6-yl (2R,6S)-2,6-dimethyl-4-[6-(trifluoromethyl)-[1,3]thiazolo[5,4-b]pyridin-2-yl]piperazine-1-carboxylate]"
7,10 to 100 nM,"C[C@@H]1CN(c2nc3cc(C(F)(F)F)cnc3s2)C[C@@H](C)N1C(=O)OC1CC2(C1)CN(Cc1ccccc1)C2 [Compound 366, 2-benzyl-2-azaspiro[3.3]heptan-6-yl (2R,6R)-2,6-dimethyl-4-[6-(trifluoromethyl)-[1,3]thiazolo[5,4-b]pyridin-2-yl]piperazine-1-carboxylate]"
8,< 10 nM,"C[C@@H]1CN(c2nc3cc(C(F)(F)F)cnc3s2)[C@@H](C)CN1C(=O)OC1CC2(C1)CN(Cc1ccccc1)C2 [Compound 367, 2-benzyl-2-azaspiro[3.3]heptan-6-yl (2R,5S)-2,5-dimethyl-4-[6-(trifluoromethyl)-[1,3]thiazolo[4,3-b]pyridin-2-yl]piperazine-1-carboxylate]"
9,< 10 nM,"C[C@@H]1CN(c2nc3ccc(F)cc3s2)C[C@H](C)N1C(=O)OC1CC2(C1)CN(Cc1ccccc1)C2 [Compound 368, 2-benzyl-2-azaspiro[3.3]heptan-6-yl (2R,6S)-4-(6-fluoro-1,3-benzothiazol-2-yl)-2,6-dimethylpiperazine-1-carboxylate]"
10,10 to 100 nM,"C[C@@H]1CN(c2nc3ccc(F)cc3s2)C[C@@H](C)N1C(=O)OC1CC2(C1)CN(Cc1ccccc1)C2 [Compound 369, 2-benzy-2-azaspiro[3.3]heptan-6-yl (2R,6R)-4-(6-fluoro-1,3-benzothiazol-2-yl)-2,6-dimethylpiperazine-1-carboxylate]"
11,< 10 nM,"C[C@@H]1CN(c2nc3ccc(F)cc3s2)[C@@H](C)CN1C(=O)OC1CC2(C1)CN(Cc1ccccc1)C2 [Compound 370, 2-benzyl-2-azaspiro[3.3]heptan-6-yl (2R,5S)-4-(6-fluoro-1,3-benzothiazol-2-yl)-2,5-dimethylpiperazine-1-carboxylate]"
12,< 10 nM,"C[C@@H]1CN(c2nc3ccc(C(F)(F)F)cc3s2)[C@@H](C)CN1C(=O)OC1CC2(C1)CN(Cc1ccccc1)C2 [Compound 372, 2-benzyl-2-azaspiro[3.3]heptan-6-yl (2R,5S)-2,5-dimethyl-4-[6-(trifluoromethyl)-1,3-benzothiazol-2-yl]piperazine-1-carboxylate]"
13,100 to 1000 nM,"C[C@@H]1CN(c2ncc3ccccc3n2)C[C@H](C)N1C(=O)OC1CC2(C1)CN(Cc1ccccc1)C2 [Compound 377, 2-benzyl-2-azaspiro[3.3]heptan-6-yl (2R,6S)-2,6-dimethyl-4-(quinazolin-2-yl)piperazine-1-carboxylate]"
14,< 10 nM,"C[C@@H]1CN(c2cnc3cc(C(F)(F)F)ccc3n2)C[C@H](C)N1C(=O)OC1CC2(C1)CN(Cc1ccccc1)C2 [Compound 378, 2-benzyl-2-azaspiro[3.3]heptan-6-yl (2R,6S)-2,6-dimethyl-4-[6-(trifluoromethyl)quinoxalin-2-yl]piperazine-1-carboxylate]"
15,10 to 100 nM,"COc1ccc2nc(N3C[C@@H](C)N(C(=O)OC4CC5(C4)CN(Cc4ccccc4)C5)[C@@H](C)C3)cnc2c1 [Compound 379, 2-benzyl-2-azaspiro[3.3]heptan-6-yl (2R,6S)-4-(6-methoxyquinoxalin-2-yl)-2,6-dimethylpiperazine-1-carboxylate]"
16,< 10 nM,"C[C@@H]1CN(c2cnc3cc(C(F)(F)F)ccc3n2)[C@@H](C)CN1C(=O)OC1CC2(C1)CN(Cc1ccccc1)C2 [Compound 380, 2-benzyl-2-azaspiro[3.3]heptan-6-yl (2R,5S)-2,5-dimethyl-4-[6-(trifluoromethyl)quinoxalin-2-yl]piperazine-1-carboxylate]"
17,< 10 nM,"C[C@@H]1CN(c2nc3ccc(F)cc3s2)C[C@H](C)N1C(=O)OC1CC2(C1)CN(Cc1ccc(F)cc1)C2 [Compound 381, 2-[(4-fluorophenyl)methyl]-2-azaspiro[3.3]heptan-6-yl (2R,6S)-4-(6-fluoro-1,3-benzothiazol-2-yl)-2,6-dimethylpiperazine-1-carboxylate]"
18,< 10 nM,"C[C@@H]1CN(c2nc3ccc(F)cc3s2)[C@@H](C)CN1C(=O)OC1CC2(C1)CN(Cc1ccc(F)cc1)C2 [Compound 383, 2-[(4-fluorophenyl)methyl]-2-azaspiro[3.3]heptan-6-yl (2R,5S)-4-(6-fluoro-1,3-benzothiazol-2-yl)-2,5-dimethylpiperazine-1-carboxylate]"
19,< 10 nM,"C[C@@H]1CN(c2nc3ccc(C(F)(F)F)cc3s2)C[C@H](C)N1C(=O)OC1CC2(C1)CN(Cc1ccc(F)cc1)C2 [Compound 384, 2-[(4-fluorophenyl)methyl]-2-azaspiro[3.3]heptan-6-yl (2R,6S)-2,6-dimethyl-4-[6-(trifluoromethyl)-1,3-benzothiazol-2-yl]piperazine-1-carboxylate]"
20,10 to 100 nM,"C[C@@H]1CN(c2nc3ccc(C(F)(F)F)cc3s2)C[C@@H](C)N1C(=O)OC1CC2(C1)CN(Cc1ccc(F)cc1)C2 [Compound 385, 2-[(4-fluorophenyl)methyl]-2-azaspiro[3.3]heptan-6-yl (2R,6R)-2,6-dimethyl-4-[6-(trifluoromethyl)-1,3-benzothiazol-2-yl]piperazine-1-carboxylate]"
21,< 10 nM,"C[C@@H]1CN(c2nc3ccc(C(F)(F)F)cc3s2)[C@@H](C)CN1C(=O)OC1CC2(C1)CN(Cc1ccc(F)cc1)C2 [Compound 386, 2-[(4-fluorophenyl)methyl]-2-azaspiro[3.3]heptan-6-yl (2R,5S)-2,5-dimethyl-4-[6-(trifluoromethyl)-1,3-benzothiazol-2-yl]piperazine-1-carboxylate]"
22,< 10 nM,"[2H]c1c([2H])c([2H])c(C([2H])([2H])N2CC3(CC(OC(=O)N4[C@H](C)CN(c5ncc(C(F)(F)F)cn5)C[C@@H]4C)C3)C2)c([2H])c1[2H] [Compound 387, 2-[(^2H5)phenyl(^2H2)methyl]-2-azaspiro[3.3]heptan-6-yl (2R,6S)-2,6-dimethyl-4-[5-(trifluoromethyl)pyrimidin-2-yl]piperazine-1-carboxylate]"
23,10 to 100 nM,"[2H]c1c([2H])c([2H])c(C([2H])([2H])N2CC3(CC(OC(=O)N4[C@H](C)CN(c5cnc(C(F)(F)F)cn5)C[C@@H]4C)C3)C2)c([2H])c1[2H] [Compound 388, 2-[(^2H5)phenyl(^2H2)methyl]-2-azaspiro[3.3]heptan-6-yl (2R,6S)-2,6-dimethyl-4-[5-(trifluoromethyl)pyrazin-2-yl]piperazine-1-carboxylate]"
24,10 to 100 nM,"C[C@@H]1CN(c2cnc3ccccc3n2)C[C@H](C)N1C(=O)OC1CC2(C1)CN(Cc1ccc(F)cc1)C2 [Compound 391, 2-[(4-fluorophenyl)methyl]-2-azaspiro[3.3]heptan-6-yl (2R,6S)-2,6-dimethyl-4-(quinoxalin-2-yl)piperazine-1-carboxylate]"
25,< 10 nM,"C[C@@H]1CN(c2ncc3ccccc3n2)C[C@H](C)N1C(=O)OC1CC2(C1)CN(Cc1ccc(F)cc1)C2 [Compound 392, 2-[(4-fluorophenyl)methyl]-2-azaspiro[3.3]heptan-6-yl (2R,6S)-2,6-dimethyl-4-(quinazolin-2-yl)piperazine-1-carboxylate]"
